Measurements as given in article PMC7865276, “Chemical Constituents of the Bulbs of Scilla peruviana and Their Pancreatic Lipase Inhibitory Activity” (International Journal of Molecular Sciences, 2021).

Columns and labels:
[1] = biological target: T1, lipase from porcine pancreas, TYPE II (Sus scrofa, UniProt P00591); assay: pancreatic lipase inhibitory activity (Lipase Kit S, BALB substrate); format: biochemical; conditions: for pancreatic lipase inhibitory activity (in words): in vitro, 0.45, 0.90 and 4.5 mM
T1 construct: lipase from porcine pancreas, TYPE II; purchased Sigma-Aldrich; host or cells: porcine pancreas (tissue preparation)
T1 sequence (P00591 1-450): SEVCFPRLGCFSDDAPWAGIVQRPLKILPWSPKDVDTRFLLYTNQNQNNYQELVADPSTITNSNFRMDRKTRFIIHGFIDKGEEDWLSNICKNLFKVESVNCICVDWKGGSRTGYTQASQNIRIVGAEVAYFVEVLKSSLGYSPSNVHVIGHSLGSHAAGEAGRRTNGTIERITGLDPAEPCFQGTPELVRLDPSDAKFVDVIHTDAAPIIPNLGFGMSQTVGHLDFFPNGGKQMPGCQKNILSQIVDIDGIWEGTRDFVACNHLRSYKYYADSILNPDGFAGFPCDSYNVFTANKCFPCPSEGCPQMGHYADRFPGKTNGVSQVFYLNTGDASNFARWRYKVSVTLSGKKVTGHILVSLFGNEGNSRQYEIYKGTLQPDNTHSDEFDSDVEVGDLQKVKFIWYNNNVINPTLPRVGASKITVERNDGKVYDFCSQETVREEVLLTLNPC
Protocol: The pancreatic lipase activity of each test sample was measured by a modified method using a commercially available kit (Lipase Kit S, Dainippon Pharmaceutical). The purities of test samples were confirmed by HPLC analysis (Figure S6 in Supplementary Materials). Cetilistat was used as a positive control at 0.1, 1.0, and 10 μM. Test sample was dissolved in EtOH–H2O (1:1) and diluted to concentrations of 0.45, 0.90, and 4.5 mM, respectively. Lipase (lipase from porcine pancreas, TYPE II, 100–500 units/mg) was purchased from Sigma-Aldrich. Briefly, test sample was mixed with enzyme buffer, and incubated for 5 min at 30 °C. After incubation, 2,3-dimercapto-1-propanol tributyrate (BALB) as substrate was added and the enzyme reaction was proceeded for 30 min at 30 °C. Lipase activity was determined by measuring the absorbance of the resulting 5-thio-2-nitrobenzoate anion at 412 nm using a microplate reader. The inhibition rate was calculated by the following formula: Inhibition rate (%) = [1 − (ΔAsample − ΔAblank)/(ΔAcontrol − ΔAblank)] × 100. The inhibitory concentration (IC50) was calculated by log-Probit analysis.

[2] = system: cyclic adenosine monophosphatase (cAMP) phosphodiesterase; set-up: method as in PMID 8149459, doi:10.1246/cl.1992.1863; conditions: cited from earlier work
ddY mice = assay: serum TG levels in intralipid (soybean oil)-loaded mice; format: in vivo; conditions: for serum TG levels: 15 min before intralipid loading, 120 min after intralipid, mean ± S.E.M., n = 5
Protocol: Male ddY mice, 5 weeks old, were purchased from Japan Laboratory Animals and maintained in the animal facility of the Tokyo University of Pharmacy and Life Sciences. The animals were housed in cages under controlled temperature (23 ± 2 °C) and a 12 h light-dark cycle. The mice were allowed free access to breeding food and water. All experiments were approved by the Tokyo University of Pharmacy and Life Sciences Animal Use Committee (approval number: P17-84, date of approval: 24 April 2017).
After 5 weeks, mice were fasted overnight and randomly divided into five groups (n = 5). The body weight of each mouse was measured (24.0–30.7 g/body). 0.5% Carboxymethyl cellulose (CMC; Wako Pure Chemical Industries), cetilistat (Tokyo Kasei, purity > 98.0%; 180 mg/kg), or compound 6 (150 or 300 mg/kg) were prepared for test samples and the intralipid (soybean oil 20% emulsion, 20 mL/kg, Sigma-Aldrich) was used for the high-fat diet. Single dose of 0.5% CMC, cetilistat, and compound 6 (150 or 300 mg/kg) were orally administered to mice in each group (n = 5) 15 min before the intralipid loading. Blood samples were collected from the abdominal vena cava 120 min after the intralipid-loaded treatment and centrifuged (700× g for 10 min) to obtain serum samples. The TG levels in serum were measured using a commercially available kit (Wako Triglyceride E-Test kit, Wako Pure Chemical Industries).

pancreatic lipase = system: pancreatic lipase; set-up: method as in PMID 25389058; conditions: cited from earlier work
mice = system: mice; set-up: method as in earlier work; conditions: oral administration; cited from earlier work
[3] = mean ± S.E.M. of three experiments in triplicate, tested at 0.45, 0.90, 4.5 mM

Compound | pancreatic lipase inhibitory activity (in words) [1] | IC50 [1, 3] | also measured
COC(=O)/C(C)=C/[C@H]1[C@H](OC)O[C@H]2C[C@@]3(C)C4=C(CC[C@]3(C)[C@@]2(O)[C@@H]1C)[C@@]1(C)CC[C@H](O[C@@H]2O[C@H](CO)[C@@H](O)[C@H](O)[C@H]2O[C@@H]2O[C@H](CO)[C@@H](O)[C@H](O)[C@H]2O[C@@H]2O[C@@H](C)[C@H](O)[C@@H](O)[C@H]2O)C(C)(C)[C@@H]1CC4 [Compound 2, 23α-methyl-peruvianoside A] | significant pancreatic lipase inhibitory activity in a concentration-dependent manner | 840 ± 29 µM | –
scillasaponin B | – | – | cAMP phosphodiesterase inhibitory activity (in words) [2]: show cyclic adenosine monophosphatase (cAMP) phosphodiesterase inhibitory activity
CC1CC2(CC(C)C3(CCC4(C)C5=C(CCC43C)C3(C)CCC(OC4OC(COC6OCC(O)C(O)C6OC6OC(CO)C(O)C(O)C6OC6OC(C)C(O)C(O)C6O)C(O)C(O)C4O)C(CO)(CO)C3CC5)O2)OC1=O [Compound 7, (23S,25R)-3β,30,31-trihydroxy-17α,23-epoxy-5α-lanost-5-en-23,26-olactone3-O-[O-α-L-rhamno-pyranosyl-(1→2)-O-β-D-glucopyranosyl-(1→2)-O-α-L-arabinopyranosyl-(1→6)-O-β-D-glucopyranoside]] | – | 1100 ± 15 µM | –
COC(=O)/C(C)=C/[C@H]1[C@@H](OC)O[C@H]2C[C@@]3(C)C4=C(CC[C@]3(C)[C@@]2(O)[C@@H]1C)[C@@]1(C)CC[C@H](O[C@@H]2O[C@H](CO)[C@@H](O)[C@H](O)[C@H]2O[C@@H]2O[C@H](CO)[C@@H](O)[C@H](O)[C@H]2O[C@@H]2O[C@@H](C)[C@H](O)[C@@H](O)[C@H]2O)C(C)(C)[C@@H]1CC4 [Compound 3, 23β-methyl-peruvianoside A] | significant pancreatic lipase inhibitory activity in a concentration-dependent manner | 590 ± 20 µM | –
COC(=O)/C(C)=C/[C@H]1[C@H](O)O[C@H]2C[C@@]3(C)C4=C(CC[C@]3(C)[C@@]2(O)[C@@H]1C)[C@@]1(C)CC[C@H](O[C@@H]2O[C@H](CO)[C@@H](O)[C@H](O)[C@H]2O[C@@H]2O[C@H](CO)[C@@H](O)[C@H](O)[C@H]2O[C@@H]2O[C@@H](C)[C@H](O)[C@@H](O)[C@H]2O)C(C)(C)[C@@H]1CC4 [Compound 4, peruvianoside A] | – | 1420 ± 40 µM | cAMP phosphodiesterase inhibitory activity (in words) [2]: show cyclic adenosine monophosphatase (cAMP) phosphodiesterase inhibitory activity
CC1CC2(CC(C)C3(CCC4(C)C5=C(CCC43C)C3(C)CCC(OC4OC(COC6OCC(O)C(O)C6OC6OC(CO)C(O)C(O)C6OC6OC(C)C(O)C(O)C6O)C(O)C(O)C4O)C(C)(CO)C3CC5)O2)OC1=O [Compound 6, (23S,25R)-3β,31-dihydroxy-17α,23-epoxy-5α-lanost-8-en-23,26-olactone3β-O-[O-α-L-rhamnopyranosyl-(1→2)-O-β-D-gluco-pyranosyl-(1→2)-O-α-L-arabinopyranosyl-(1→6)-O-β-D-glucopyranoside]] | significant pancreatic lipase inhibitory activity in a concentration-dependent manner | 810 ± 29 µM | serum TG levels (ddY mice; 300 mg/kg single oral dose): 90.9 ± 16.2 mg/dL; effect on serum triglyceride levels (in words) (ddY mice; oral, 150 or 300 mg/kg, soybean oil-loaded mice): reduced serum triglyceride levels in a dose-dependent manner
CC(C)=CCCC(C(=O)O)C1CCC2(C)C3CCC4C(C)(CCC(O)C4(C)C)C3=CCC12C (stereo not drawn) [3β-Hydroxylanosta 9,24-dien-21-oic acid] | – | – | pancreatic lipase inhibition (in words) (pancreatic lipase): inhibit the pancreatic lipase activity
C[C@@H]1O[C@@H](O[C@H]2[C@H](O[C@H]3[C@H](OC[C@H]4O[C@@H](O[C@H]5CC[C@]6(C)C7=C(CC[C@H]6[C@@]5(C)CO)[C@]5(C)CC[C@@]6(OC(=O)C[C@H]6C)[C@@]5(C)CC7)[C@H](O)[C@@H](O)[C@@H]4O)OC[C@H](O)[C@@H]3O)O[C@H](CO)[C@@H](O)[C@@H]2O[C@@H]2O[C@H](CO)[C@@H](O)[C@H](O)[C@H]2O)[C@H](O)[C@H](O)[C@H]1O [Compound 11, scillanostaside G] | inhibited the pancreatic lipase activity in an inverted dose-dependent manner | > 4500 µM | –
C=C1C(O)CCC2C1(C)CCC1C2(C)CCC2(C)C3C(C(C)C)CCC3(C)CCC12C (stereo not drawn) [cymbopogonol] | – | – | effect on serum TG levels (in words) (mice): reduced serum TG levels in mice
CCC(=O)[C@@H]1C[C@@H](C)[C@]2(CC[C@@]3(C)C4=C(CC[C@@]32C)[C@@]2(C)CC[C@H](O[C@@H]3O[C@H](CO[C@@H]5OC[C@H](O)[C@H](O)[C@H]5O[C@@H]5O[C@H](CO)[C@@H](O)[C@H](O[C@@H]6O[C@H](CO)[C@@H](O)[C@H](O)[C@H]6O)[C@H]5O[C@@H]5O[C@@H](C)[C@H](O)[C@@H](O)[C@H]5O)[C@@H](O)[C@H](O)[C@H]3O)[C@](C)(CO)[C@@H]2CC4)O1 [Compound 9, 15-deoxy-eucosterol3β-[O-β-D-glucopyranosyl-(1→3)-O-[α-L-rhamnopyranosyl-(1→2)]-β-D-glucopyranosyl-(1→2)-O-α-L-arabinopyranosyl-(1→6)-O-β-D-glucopyranoside]] | – | 910 ± 23 µM | –
CCC(=O)[C@@H]1C[C@@H](C)[C@]2(CC[C@@]3(C)C4=C(CC[C@@]32C)[C@@]2(C)CC[C@H](O[C@@H]3O[C@H](CO[C@@H]5OC[C@H](O)[C@H](O)[C@H]5O[C@@H]5O[C@H](CO)[C@@H](O)[C@H](O[C@@H]6O[C@H](CO)[C@@H](O)[C@H](O)[C@H]6O)[C@H]5O[C@@H]5O[C@@H](C)[C@H](O)[C@@H](O)[C@H]5O)[C@@H](O)[C@H](O)[C@H]3O)C(CO)(CO)[C@@H]2CC4)O1 [Compound 10, 15-deoxy-30-hydroxyeucosterol3β-[O-β-D-glucopyranosyl-(1→3)-O-[α-L-rhamnopyranosyl-(1→2)]-β-D-glucopyranosyl-(1→2)-O-α-L-arabinopyranosyl-(1→6)-O-β-D-glucopyranoside]] | – | 1130 ± 62 µM | –
COC(=O)/C(C)=C/[C@H]1[C@H](O)O[C@H]2C[C@@]3(C)C4=C(CC[C@]3(C)[C@@]2(O)[C@@H]1C)[C@@]1(C)CC[C@H](O[C@@H]2O[C@H](CO)[C@@H](O)[C@H](O)[C@H]2O[C@@H]2O[C@H](CO)[C@@H](O)[C@H](O)[C@H]2O[C@@H]2O[C@@H](C)[C@H](O)[C@@H](O)[C@H]2O)[C@](C)(CO)[C@@H]1CC4 [Compound 5, peruvianoside B] | – | 1400 ± 35 µM | –
CCCCCCCCCCCCCCCCOc1nc2ccc(C)cc2c(=O)o1 [Cetilistat, reference compound] | – | – | IC50 ([1]; positive control, tested at 0.1, 1.0, 10 μM, mean ± S.E.M.): 1.43 ± 0.052 µM; serum TG levels (ddY mice; 180 mg/kg oral): 130.2 ± 23.4 mg/dL
